Data reported in patent US11098062B2, “Monocyclic and bicyclic ring system substituted carbanucleoside analogues for use as PRMT5 inhibitors” (Janssen Pharmaceutica NV, priority 2016, dated 2021).

How the values were obtained:
[1] = test system: nuclear symmetric Arginine dimethylation in A549 cells; experiment: PD assay (assay 2): inhibition of nuclear symmetric Arginine dimethylation (SYM10 immunostaining) in A549 cells; assay type: cell-based; conditions: Homo sapiens, 48 h incubation, SYM10 antibody, averaged values, read-out: pIC50 Assay 2 (converted)
Experimental: Experimental Procedure PD Assay (Assay 2)
A549 cells (ATCC, Cat #CCL-185) were cultured in Dulbecco's Modified Eagle's Medium (DMEM) (Sigma, Cat #D5796), supplemented with 10% Fetal Calf Serum (FCS) (HyClone™, Cat #SV30160.03), 100 mM Sodium Pyruvate (Sigma, Cat #S8636), 200 mM L-Glutamine (Sigma, Cat #G7513) and 50 mg/mL Gentamycing (Gibco, Cat #15750-037).
Reagents used for buffers were purchased: Dulbecco's phosphate buffered saline (DPBS) without Ca/Mg (Sigma, Cat #D8537), phosphate buffered saline (PBS) 10× (Roche, Cat #11 666 789 001), Formalin solution 10% (Sigma, HT50-1-128-4L), Methanol 100% (Sigma, Cat #32213-2.5L), Triton X-100 (Acros, Cat #215680010), Bovine Serum Albumin (BSA) (Sigma, Cat #A2153), Alexa fluor 488 goat anti-rabbit antibody (Life Technologies, Cat #A11034), HCS CellMask Deep Red Stain (Life Technologies, Cat #H32721), Hoechst Stain (Life Technologies, Cat #33258), Anti-dimethyl-Arginine, sym (SYM10) antibody (Millipore, 07-412).
Cells were plated at 400 cells/40 μL/well in 384 well black μplates clear bottom (Perkin Elmer) and overnight incubated at 37° C., 5% CO2. The IC50 Studies were performed using nine point dosing series ranging from 10 μM to […] for each compound. 80 nL of the respective dilution of the compounds was added using the Labcyte POD 810 (Labcyte) reaching a final DMSO concentration of 0.2% in cell culture. After an incubation period of 48 h at 37° C. and 5% CO2, cells were fixed in 10% formalin solution for 15 min at room temperature and 20 min in ice-cold methanol, after which they were washed 3× in DPBS. Subsequently, the cells were blocked for 1 h in blocking buffer (PBS+1% BSA and 0.5% Triton X-100) and incubated overnight at 4° C. with the SYM10 antibody diluted 1/2000 in blocking buffer. The cells were washed 3× with washing buffer (PBS+0.1% Triton X-100) and incubated with the Alexa fluor 488 goat anti-rabbit antibody diluted 1/200 in blocking buffer for 1 h at room temperature. Subsequently, they were washed 3× with washing buffer and incubated for 30 min at room temperature with PBS containing a 1/5000 dilution of Hoechst Stain and a 1/5000 dilution of the HCS CellMask Deep Red Stain. After a final wash with PBS, the plates were imaged using the 10×W lens of the Opera® system (Perkin Elmer Life Sciences) using following settings (values in nm):
Low control: minimum level of symmetrically dimethylated Arginines (cells treated with reference compound at 10 μM).
High control: maximum level of symmetrically dimethylated Arginines (DMSO treated cells).
IC50 and pIC50 (−log IC50) values were calculated using the appropriate software.
The pIC50 values in the Table below are averaged values (Co. No. means compound number; n.d. means not determined).

PRMT5-MEP50 enzyme [2] = target: T1, PRMT5-MEP50 enzyme (Homo sapiens, UniProt O14744); experiment: In vitro assay 1b: PRMT5-MEP50 high throughput mass spectrometer assay (SAH formation), 1.25 nM enzyme; assay type: biochemical
T1 construct: One virus expresses full length human PRMT5 with Flag-tag at N-terminus; Flag (N); purchased Charles River (Argenta); host or cells: insect cells (Sf9), baculovirus co-infection
From the text: (§1) Experimental Procedures In Vitro Assay (Assay 1a and 1b)
(§2) PRMT5-MEP50 enzyme was purchased from Charles River (Argenta). The enzyme complex was produced in insect cells (Sf9) infected simultaneously with two baculoviruses. One virus expresses full length human PRMT5 with Flag-tag at N-terminus, the second virus expresses full length MEP50 with His6-TEV cleavage at N-terminus. The protein was affinity purified using anti-Flag (M2) beads eluted with 3×FLAG peptide, followed by His-Select eluted with 0.5M imidazole. Eluted protein was then dialysed against tris-buffered saline (TBS) (pH 8.0) containing 20% glycerol and 3 mM dithiothreitol (DTT).
(§3) Full-length untagged human recombinant histone H2A (residues 1-130, Genbank Accession #NM_021052, MW=14.1 kDa) expressed in E. coli was purchased from Reaction Biology Corporation, Cat #HMT-11-146. Reagents used for making reaction buffer or stopping reaction were purchased including Tris base (Sigma Cat #T-1503), NaCl (Sigma Cat #RGF-3270), MgCl2 (Sigma Cat #M0250), DTT (Invitrogen Cat #15508-013) and Formic Acid (Riedel deHaen, Cat #33015)
(§4) PRMT5 catalyzes the sequential methylations of the terminal nitrogen atoms on the guanidine groups of arginine residues within proteins using co-substrate S-adenosyl-L-methionine (AdoMet, SAM), forming mono-methyl (MMA), syrmmetric-dimethyl arginine (sDMA) and S-adenosyl-L-homocysteine (AdoHcy, SAH). The enzyme activity was determined by following the product SAH formation using high throughput mass spectrometry (Agilent Rapidfire 300 System coupled to a Sciex 4000 series QTrap® triple-quad MS/MS). The reaction buffer was 20 mM Tris-HCl, pH 8.5, 50 mM NaCl, 5 mM MgCl2 and 1 mM DTT. The reaction activity was stopped using 1% formic acid (final concentration).
(§5) The IC50 Studies were performed using eleven point dosing series made for each compound by serially diluted 1:2 in dimethyl sulfoxide (DMSO), with point 12 being a DMSO control. Compounds were first spotted to plates, and followed by addition of 2 μM SAM and 0.6 μM H2A (histone H2A) solution mixture. The same volume of enzyme solution was added to initiate the enzymatic reactions. The final concentrations of the reaction are at 1 μM SAM, 0.3 μM H2A and 10 nM enzyme (assay 1a) or or 1.25 nM enzyme (assay 1b). The reaction was incubated at 30° C. for 60 minutes (min) when 10 nM enzyme was used and for 120 min when 1.25 nM enzyme was used. Subsequently, the reaction was quenched by addition of formic acid to a final concentration of 1%. The inhibitions of SAH formation in the presence of compounds were calculated as a percentage of the control relative to the uninhibited reaction as a function of inhibitor concentration. The data were fit as follows: Y=Bottom+(Top−Bottom)/(1+10^((log IC50−X)*h))
(§6) where IC50 is the inhibitor concentration (same unit as X) at 50% inhibition and h is the Hill slope. Y is percent of inhibition, X is log of compound concentration. Bottom and Top are the plateaus in same units as Y.

PRMT5-MEP50 enzyme [3] = target: T1, PRMT5-MEP50 enzyme; experiment: In vitro assay 1a: PRMT5-MEP50 high throughput mass spectrometer assay (SAH formation), 10 nM enzyme; assay type: biochemical; conditions: 1 μM SAM, 0.3 μM H2A, 30° C., 60 min, averaged values, read-out: pIC50 Assay 1a (converted)
From the text: as §1, §2, §3, §4, §5, §6

PRMT5 = PRMT5 (Homo sapiens, UniProt O14744); conditions: background statement; cited from earlier work
MCL xenograft models = conditions: multiple MCL xenograft models; cited from earlier work
[4] = 1.25 nM enzyme, 1 μM SAM, 0.3 μM H2A, 30° C., 120 min, averaged values, read-out: pIC50 Assay 1b (converted)

T1 sequence (O14744 whole entry): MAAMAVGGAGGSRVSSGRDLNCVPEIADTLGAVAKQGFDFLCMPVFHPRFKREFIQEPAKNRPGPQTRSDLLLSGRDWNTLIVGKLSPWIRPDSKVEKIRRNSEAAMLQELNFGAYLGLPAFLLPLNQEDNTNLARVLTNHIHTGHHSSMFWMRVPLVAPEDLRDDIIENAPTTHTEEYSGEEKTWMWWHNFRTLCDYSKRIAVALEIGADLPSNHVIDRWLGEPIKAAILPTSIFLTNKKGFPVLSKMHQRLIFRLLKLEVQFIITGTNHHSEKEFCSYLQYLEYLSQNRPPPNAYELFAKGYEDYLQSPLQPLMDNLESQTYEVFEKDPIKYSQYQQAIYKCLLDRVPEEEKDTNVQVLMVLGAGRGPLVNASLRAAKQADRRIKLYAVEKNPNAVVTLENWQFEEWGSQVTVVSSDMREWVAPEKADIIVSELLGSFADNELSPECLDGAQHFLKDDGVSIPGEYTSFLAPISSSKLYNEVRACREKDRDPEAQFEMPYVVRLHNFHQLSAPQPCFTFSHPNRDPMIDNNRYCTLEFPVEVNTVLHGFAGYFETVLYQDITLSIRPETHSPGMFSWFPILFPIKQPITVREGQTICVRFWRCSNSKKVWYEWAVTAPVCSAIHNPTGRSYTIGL
T1 sequence (Q9BQA1 whole entry partner): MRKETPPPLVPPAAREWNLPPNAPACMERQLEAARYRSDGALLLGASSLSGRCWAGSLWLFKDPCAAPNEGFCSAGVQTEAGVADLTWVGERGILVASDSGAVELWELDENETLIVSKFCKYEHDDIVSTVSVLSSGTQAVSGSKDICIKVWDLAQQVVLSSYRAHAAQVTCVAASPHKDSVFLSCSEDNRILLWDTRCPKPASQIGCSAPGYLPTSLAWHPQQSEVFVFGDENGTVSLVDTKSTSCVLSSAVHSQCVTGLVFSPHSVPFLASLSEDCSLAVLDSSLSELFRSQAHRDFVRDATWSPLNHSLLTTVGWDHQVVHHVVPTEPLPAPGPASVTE
Chain of PRMT5 (O14744 whole entry, species assumed): as the sequence (O14744 whole entry) above
Chain of PRMT5 (Q9BQA1 whole entry partner, species assumed): as the sequence (Q9BQA1 whole entry partner) above

CNc1ncnc2c1ccn2[C@@H]1C[C@H](CCc2ccn3c(C)cnc3c2)[C@@H](O)[C@H]1O [Compound 9]
IC50 [1]: 63.1 nM
IC50 (PRMT5-MEP50 enzyme [2]; [4]): 3.98 nM

Nc1ncnc2c1ccn2[C@@H]1C[C@H](COc2ccn3ccnc3c2)[C@@H](O)[C@H]1O [Compound 24]
IC50 (PRMT5-MEP50 enzyme [3]): 31.6 nM
IC50 [1]: 1580 nM

Cc1cnc2cc(CC[C@H]3C[C@@H](n4ccc5c(N)ncnc54)[C@H](O)[C@@H]3O)c(Cl)cn12 [Compound 2]
IC50 [1]: 6.31 nM
IC50 (PRMT5-MEP50 enzyme [2]; [4]): 0.158 nM

Cn1cnc2cc(OC[C@H]3C[C@@H](n4ccc5c(N)ncnc54)[C@H](O)[C@@H]3O)ccc21 [Compound 25]
IC50 (PRMT5-MEP50 enzyme [3]): 126 nM
IC50 [1]: 2000 nM

CNc1nc2cc(CC[C@H]3C[C@@H](n4ccc5c(N)ncnc54)[C@H](O)[C@@H]3O)ccc2s1 [Compound 7]
IC50 (PRMT5-MEP50 enzyme [3]): 6.31 nM
IC50 [1]: 25.1 nM

Nc1cc(CC[C@H]2C[C@@H](n3ccc4c(N)ncnc43)[C@H](O)[C@@H]2O)ccn1 [Compound 29]
IC50 [1]: 2000 nM
IC50 (PRMT5-MEP50 enzyme [2]; [4]): 398 nM

Nc1ncnc2c1ccn2[C@@H]1C[C@H](CCc2ccn3c(C4CC4)cnc3c2)[C@@H](O)[C@H]1O [Compound 8]
IC50 [1]: 25.1 nM
IC50 (PRMT5-MEP50 enzyme [2]; [4]): 2.51 nM

Nc1ccc(/C=C/[C@H]2C[C@@H](n3ccc4c(N)ncnc43)[C@H](O)[C@@H]2O)cn1 [Compound 30]
IC50 [1]: 501 nM
IC50 (PRMT5-MEP50 enzyme [2]; [4]): 63.1 nM

O=C(NC[C@H](O)CN1CCc2ccccc2C1)c1cc(NC2COC2)ncn1 [EPZ015666]
PRMT5 inhibitor potency (PRMT5): sub-nanomolar potent
anti-tumour activity (MCL xenograft models): anti-tumour activity in multiple MCL xenograft models

Cc1cnc2cc(CC[C@H]3C[C@@H](n4ccc5c(N)ncnc54)[C@H](O)[C@@H]3O)ccn12 [Compound 1]
IC50 (PRMT5-MEP50 enzyme [3]): 0.794 nM
IC50 [1]: 1.26 nM

Nc1ncnc2c1ccn2[C@@H]1C[C@H](CCc2ccn3c(Cl)cnc3c2)[C@@H](O)[C@H]1O [Compound 13]
IC50 (PRMT5-MEP50 enzyme [3]): 2 nM
IC50 [1]: 20 nM
IC50 (PRMT5-MEP50 enzyme [2]; [4]): 1.26 nM

Nc1ccc(CC[C@H]2C[C@@H](n3ccc4c(N)ncnc43)[C@H](O)[C@@H]2O)cn1 [Compound 27]
IC50 [1]: 6.31 nM
IC50 (PRMT5-MEP50 enzyme [2]): 5.01 nM

Nc1ncnc2c1ccn2[C@@H]1C[C@H](CCc2cc3ncccc3s2)[C@@H](O)[C@H]1O [Compound 18]
IC50 (PRMT5-MEP50 enzyme [3]): 39.8 nM
IC50 [1]: 126 nM

Nc1ncnc2c1ccn2[C@@H]1C[C@H](CCc2cc3ncccc3o2)[C@@H](O)[C@H]1O [Compound 19]
IC50 (PRMT5-MEP50 enzyme [3]): 1260 nM
IC50 [1]: 5010 nM

Nc1ncnc2c1ccn2[C@@H]1C[C@H](CCc2ccn3c(Br)cnc3c2)[C@@H](O)[C@H]1O [Compound 14]
IC50 (PRMT5-MEP50 enzyme [3]): 1.26 nM
IC50 [1]: 12.6 nM
IC50 (PRMT5-MEP50 enzyme [2]; [4]): 1.58 nM

Nc1nc2cc(CC[C@H]3C[C@@H](n4ccc5c(N)ncnc54)[C@H](O)[C@@H]3O)ccc2s1 [Compound 6]
IC50 (PRMT5-MEP50 enzyme [3]): 2 nM
IC50 [1]: 15.8 nM

Nc1cccc(CC[C@H]2C[C@@H](n3ccc4c(N)ncnc43)[C@H](O)[C@@H]2O)n1 [Compound 28]
IC50 [1]: 631 nM
IC50 (PRMT5-MEP50 enzyme [2]; [4]): 158 nM

Nc1nc2cc(CC[C@H]3C[C@@H](n4ccc5c(Cl)ncnc54)[C@H](O)[C@@H]3O)ccc2s1 [Compound 5]
IC50 (PRMT5-MEP50 enzyme [3]): 12.6 nM
IC50 [1]: 3980 nM

Nc1ncnc2c1ccn2[C@@H]1C[C@H](CCc2cc3ncccc3[nH]2)[C@@H](O)[C@H]1O [Compound 17]
IC50 (PRMT5-MEP50 enzyme [3]): 39.8 nM
IC50 [1]: 1000 nM

Cc1nc2cc(CC[C@H]3C[C@@H](n4ccc5c(N)ncnc54)[C@H](O)[C@@H]3O)ccn2c1C [Compound 11]
IC50 [1]: 3.98 nM
IC50 (PRMT5-MEP50 enzyme [2]): < 0.2 nM

Cc1cnc2cc(CC[C@H]3C[C@@H](n4cc(Br)c5c(N)ncnc54)[C@H](O)[C@@H]3O)ccn12 [Compound 15]
IC50 [1]: 6.31 nM
IC50 (PRMT5-MEP50 enzyme [2]; [4]): 1 nM

Cc1cnc2cc(CC[C@H]3C[C@@H](n4ccc5c(N)ncnc54)[C@H](O)[C@@H]3O)c(F)cn12 [Compound 12]
IC50 [1]: 2 nM
IC50 (PRMT5-MEP50 enzyme [2]; [4]): 0.316 nM

Nc1ncnc2c1ccn2[C@@H]1C[C@H](CCc2ccn3ccnc3c2)[C@@H](O)[C@H]1O [Compound 3]
IC50 (PRMT5-MEP50 enzyme [3]): 2 nM
IC50 [1]: 20 nM

Cn1cnc2cc(CC[C@H]3C[C@@H](n4ccc5c(N)ncnc54)[C@H](O)[C@@H]3O)ccc21 [Compound 4]
IC50 (PRMT5-MEP50 enzyme [3]): 12.6 nM
IC50 [1]: 31.6 nM

COc1ncnc2c1ccn2[C@@H]1C[C@H](CCc2ccn3c(C)cnc3c2)[C@@H](O)[C@H]1O [Compound 10]
IC50 [1]: 200 nM
IC50 (PRMT5-MEP50 enzyme [2]; [4]): 10 nM

Cc1cnc2c(Cl)c(CC[C@H]3C[C@@H](n4ccc5c(N)ncnc54)[C@H](O)[C@@H]3O)ccn12 [Compound 21]
IC50 [1]: 15.8 nM
IC50 (PRMT5-MEP50 enzyme [2]; [4]): 3.98 nM
